# Laboratory results taken from PubChem BioAssay (NCI).
#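 Growth conditions: 96-well plates. Treatment: test compound, 48 hours, 5 concentrations. Analysis: linear interpolation between bracketing concentrations; unreached endpoints set to highest concentration. GI50 = concentration required for 50% inhibition of growth. TGI denotes the concentration required for complete inhibition of growth.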
# Tests used:
# Assay in all cases: NCI anticancer screen, dose series, 48 h
# LOX IMVI melanoma = test system: LOX IMVI melanoma
# TK-10 renal = test system: TK-10 renal
# IGROV1 ovarian = test system: IGROV1 ovarian
# EKVX NSCLC = test system: EKVX NSCLC
# BT-549 breast = test system: BT-549 breast
# HS 578T breast = test system: HS 578T breast
# MALME-3M melanoma = test system: MALME-3M melanoma
# HCT-15 colon = test system: HCT-15 colon
# A549 NSCLC = test system: A549 NSCLC
# SK-MEL-2 melanoma = test system: SK-MEL-2 melanoma
# DU-145 prostate = test system: DU-145 prostate
# KM12 colon = test system: KM12 colon
# OVCAR-3 ovarian = test system: OVCAR-3 ovarian
# HOP-92 NSCLC = test system: HOP-92 NSCLC
# SNB-19 CNS = test system: SNB-19 CNS
# SK-MEL-5 melanoma = test system: SK-MEL-5 melanoma
# COLO 205 colon = test system: COLO 205 colon
# SF-268 CNS = test system: SF-268 CNS
# K-562 leukemia = test system: K-562 leukemia
# RPMI-8226 leukemia = test system: RPMI-8226 leukemia
# MDA-MB-435 = test system: MDA-MB-435
# SW-620 colon = test system: SW-620 colon
# SNB-75 CNS = test system: SNB-75 CNS
# CCRF-CEM leukemia = test system: CCRF-CEM leukemia
# NCI/ADR-RES ovarian = test system: NCI/ADR-RES ovarian
# MDA-N = test system: MDA-N
# NCI-H522 lung = test system: NCI-H522 lung
# PC-3 prostate = test system: PC-3 prostate
# UACC-257 melanoma = test system: UACC-257 melanoma
# SK-OV-3 ovarian = test system: SK-OV-3 ovarian
# CAKI-1 renal = test system: CAKI-1 renal
# SR leukemia = test system: SR leukemia
# SF-295 CNS = test system: SF-295 CNS
# T-47D breast = test system: T-47D breast
# M14 melanoma = test system: M14 melanoma
# MCF7 breast = test system: MCF7 breast
# U251 CNS = test system: U251 CNS
# SN12C renal = test system: SN12C renal
# UO-31 renal = test system: UO-31 renal
# OVCAR-5 ovarian = test system: OVCAR-5 ovarian
# SK-MEL-28 melanoma = test system: SK-MEL-28 melanoma
# HOP-62 NSCLC = test system: HOP-62 NSCLC
# 786-0 renal = test system: 786-0 renal
# OVCAR-4 ovarian = test system: OVCAR-4 ovarian
# HCT-116 colon = test system: HCT-116 colon
# NCI-H23 lung = test system: NCI-H23 lung
# NCI-H226 lung = test system: NCI-H226 lung
# NCI-H460 lung = test system: NCI-H460 lung
# HT29 colon = test system: HT29 colon
# ACHN renal = test system: ACHN renal
# OVCAR-8 ovarian = test system: OVCAR-8 ovarian
# HL-60(TB) leukemia = test system: HL-60(TB) leukemia
# UACC-62 melanoma = test system: UACC-62 melanoma
# MOLT-4 leukemia = test system: MOLT-4 leukemia
# MDA-MB-231 breast = test system: MDA-MB-231 breast
# SF-539 CNS = test system: SF-539 CNS
# RXF 393 renal = test system: RXF 393 renal
# A498 renal = test system: A498 renal
# HCC-2998 colon = test system: HCC-2998 colon
compound,measurement,setting,value
O=[N+]([O-])c1ccc(N/N=C2\C=CCCC2)c([N+](=O)[O-])c1,TGI,LOX IMVI melanoma,> 100 µM
same,TGI,TK-10 renal,> 100 µM
same,TGI,IGROV1 ovarian,> 100 µM
same,TGI,EKVX NSCLC,> 100 µM
same,TGI,BT-549 breast,> 100 µM
same,TGI,HS 578T breast,> 100 µM
same,TGI,MALME-3M melanoma,> 100 µM
same,TGI,HCT-15 colon,> 100 µM
same,TGI,A549 NSCLC,> 100 µM
same,TGI,SK-MEL-2 melanoma,> 100 µM
same,TGI,DU-145 prostate,> 100 µM
same,TGI,KM12 colon,> 100 µM
same,TGI,OVCAR-3 ovarian,> 100 µM
same,TGI,HOP-92 NSCLC,> 100 µM
same,TGI,SNB-19 CNS,> 100 µM
same,TGI,SK-MEL-5 melanoma,> 100 µM
same,TGI,COLO 205 colon,> 100 µM
same,TGI,SF-268 CNS,> 100 µM
same,TGI,K-562 leukemia,> 100 µM
same,TGI,RPMI-8226 leukemia,> 100 µM
same,TGI,MDA-MB-435,> 100 µM
same,TGI,SW-620 colon,> 100 µM
same,TGI,SNB-75 CNS,73 µM
same,TGI,CCRF-CEM leukemia,> 100 µM
same,TGI,NCI/ADR-RES ovarian,> 100 µM
same,TGI,MDA-N,> 100 µM
same,TGI,NCI-H522 lung,> 100 µM
same,TGI,PC-3 prostate,> 100 µM
same,TGI,UACC-257 melanoma,> 100 µM
same,TGI,SK-OV-3 ovarian,> 100 µM
same,TGI,CAKI-1 renal,> 100 µM
same,TGI,SR leukemia,> 100 µM
same,TGI,SF-295 CNS,> 100 µM
same,TGI,T-47D breast,> 100 µM
same,TGI,M14 melanoma,> 100 µM
same,TGI,MCF7 breast,> 100 µM
same,TGI,U251 CNS,> 100 µM
same,TGI,SN12C renal,> 100 µM
same,TGI,UO-31 renal,> 100 µM
same,TGI,OVCAR-5 ovarian,> 100 µM
same,TGI,SK-MEL-28 melanoma,> 100 µM
same,TGI,HOP-62 NSCLC,> 100 µM
same,TGI,786-0 renal,> 100 µM
same,TGI,OVCAR-4 ovarian,> 100 µM
same,TGI,HCT-116 colon,> 100 µM
same,TGI,NCI-H23 lung,> 100 µM
same,TGI,NCI-H226 lung,> 100 µM
same,TGI,NCI-H460 lung,> 100 µM
same,TGI,HT29 colon,> 100 µM
same,TGI,ACHN renal,> 100 µM
same,TGI,OVCAR-8 ovarian,> 100 µM
same,TGI,HL-60(TB) leukemia,> 100 µM
same,TGI,UACC-62 melanoma,> 100 µM
COc1ccc(-c2cc(=O)c3cc(C)cnc3[nH]2)cc1,TGI,LOX IMVI melanoma,> 100 µM
same,TGI,TK-10 renal,> 100 µM
same,TGI,IGROV1 ovarian,> 100 µM
same,TGI,EKVX NSCLC,> 100 µM
same,TGI,BT-549 breast,15 µM
same,TGI,HS 578T breast,> 100 µM
same,TGI,MALME-3M melanoma,> 100 µM
same,TGI,HCT-15 colon,19.8 µM
same,TGI,A549 NSCLC,> 100 µM
same,TGI,SK-MEL-2 melanoma,> 100 µM
same,TGI,MOLT-4 leukemia,40.9 µM
same,TGI,MDA-MB-231 breast,> 100 µM
same,TGI,DU-145 prostate,> 100 µM
same,TGI,KM12 colon,> 100 µM
same,TGI,HOP-92 NSCLC,> 100 µM
same,TGI,SNB-19 CNS,> 100 µM
same,TGI,SF-539 CNS,> 100 µM
same,GI50,SK-MEL-5 melanoma,3.73 µM
same,TGI,SK-MEL-5 melanoma,> 100 µM
same,TGI,COLO 205 colon,23 µM
same,TGI,SF-268 CNS,> 100 µM
same,TGI,RXF 393 renal,> 100 µM
same,TGI,K-562 leukemia,8.29 µM
same,TGI,RPMI-8226 leukemia,45 µM
same,TGI,MDA-MB-435,5.53 µM
same,TGI,SW-620 colon,> 100 µM
same,TGI,NCI/ADR-RES ovarian,23.5 µM
same,GI50,MDA-N,1.69 µM
same,TGI,MDA-N,4.98 µM
same,TGI,NCI-H522 lung,30.7 µM
same,GI50,PC-3 prostate,5.32 µM
same,TGI,PC-3 prostate,> 100 µM
same,TGI,UACC-257 melanoma,> 100 µM
same,TGI,SK-OV-3 ovarian,> 100 µM
same,TGI,CAKI-1 renal,> 100 µM
same,GI50,SF-295 CNS,5.29 µM
same,TGI,SF-295 CNS,> 100 µM
same,TGI,A498 renal,62.6 µM
same,TGI,T-47D breast,> 100 µM
same,TGI,M14 melanoma,45.1 µM
same,TGI,MCF7 breast,> 100 µM
same,GI50,U251 CNS,4.2 µM
same,TGI,U251 CNS,> 100 µM
same,TGI,SN12C renal,> 100 µM
same,TGI,UO-31 renal,> 100 µM
same,TGI,OVCAR-5 ovarian,> 100 µM
same,TGI,SK-MEL-28 melanoma,> 100 µM
same,TGI,HOP-62 NSCLC,> 100 µM
same,GI50,786-0 renal,5.1 µM
same,TGI,786-0 renal,> 100 µM
same,TGI,OVCAR-4 ovarian,> 100 µM
same,GI50,HCT-116 colon,4.15 µM
same,TGI,HCT-116 colon,> 100 µM
same,TGI,NCI-H23 lung,> 100 µM
same,TGI,NCI-H226 lung,51.7 µM
same,GI50,NCI-H460 lung,4.08 µM
same,TGI,NCI-H460 lung,36.5 µM
same,TGI,HT29 colon,5.9 µM
same,TGI,HCC-2998 colon,85 µM
same,TGI,ACHN renal,> 100 µM
same,TGI,OVCAR-8 ovarian,> 100 µM
same,GI50,HL-60(TB) leukemia,2.27 µM
same,TGI,HL-60(TB) leukemia,5.64 µM
same,TGI,UACC-62 melanoma,> 100 µM
